Columns and labels:
[1] = test system: H9C2 cardiomyoblasts; assay: NAD levels in H9C2 cardiomyoblasts; format: cell-based; conditions: H9C2, 10 μM, vs vehicle (1% DMSO) or FK866 (10 nM)
Description: Nampt, a rate-limiting enzyme, controls the level of NAD+ and protects the heart by stimulating SIRT1. […] The data presented in this Example coupled with previous evidence of the ability of P7C3 to bind and activate Nampt unequivocally indicate that the rescue of arrythmogenic and myopathy changes noted in P7C3 treated db/db mice are in due to activation of Nampt activation, NAD elevation, and stimulation of Nampt-SIRT1 axis.

[2] = test system: db/db mice; assay: Serum insulin levels by ELISA; format: in vivo; conditions: diabetic mice, about 10 mg/kg i.p., 4 weeks, vs vehicle
Method: A Nampt activator, P7C3, was administered and various effects were evaluated. […] Briefly, the dose of P7C3 was about 10 mg/kg and administered i.p. to diabetic mice and the effect on serum insulin, insulin tolerance, blood glucose, and pancreatic beta cell number and insulin granulation in the islets of a diabetic model pancreas. The serum from P7C3 or vehicle treated diabetic mice and measured the insulin levels by ELISA assay.

[3] = test system: diabetic hearts (db/db); assay: Langendorff myocardial ischemia-reperfusion injury, diabetic hearts; design: species or system mice; conditions: 4 week treated diabetic hearts, 45 min ischemia, 60 min reperfusion, vs vehicle
[4] = test system: db/db mice; assay: Intra-peritoneal glucose tolerance test (IPGTT); format: in vivo; conditions: 10 mg/kg, 4 weeks, vs vehicle
Method: The diabetic model was treated with a vehicle or P7C3 for 4 weeks. Then a glucose tolerance test was conducted.
(§1) To determine the effect of the Nampt activator on blood sugar control and cardiac electrical activity in diabetics, we examined the effects of P7C3,in a diabetic mouse model (db/db mice). Briefly, wild-type or db/db mice were treated with a Nampt activator (P7C3) or control. The Nampt activator or control was administered daily via intraperitoneal (i.p.) injection at about 10 mg/kg.
An insulin tolerance test was also performed after 4 weeks of Nampt activator treatment as previously described.

[5] = test system: db/db mice; assay: NADH/NAD ratio in diabetic model; format: in vivo; conditions: 4 weeks treatment, vs vehicle
[6] = test system: db/db mice; assay: ECG, cardiac electrical abnormalities; format: in vivo; conditions: 20 week old, vs vehicle treated db/db
Method: as §1

[7] = test system: pancreatic islet β-cells of diabetic mice; assay: Pancreatic islets and beta cells, Gomori staining; format: in vivo; conditions: 10 mg/Kg daily, 4 weeks, vs vehicle
Method: Additionally diabetic mice were treated with P7C3 for 4 weeks with daily dose of 10 mg/Kg with P7C3 or vehicle. Thereafter, the pancreas was collected at necropsy and cryosectioned, the cross sections were stained for visualizing the damage of β-cells in diabetes and rescue by P7C3. […] P<0.01. ** indicates […] between Vehicle and P7C3 groups and *** indicates P<0.001 Vehicle and P7C3 groups as determined by a one-way ANOVA followed by Tukey test.

[8] = test system: diabetic mice; assay: Insulin tolerance test (ITT); format: in vivo; conditions: about 10 mg/Kg daily, 4 weeks, insulin 5 U/Kg i.v.
Method: Diabetic mice were utilized and treated with P7C3 for 4 weeks with a daily dose of about 10 mg/Kg P7C3 or vehicle. Thereafter, ITT (insulin tolerance test) was performed by injecting insulin 5 U/Kg body weight i.v. Blood glucose levels were monitored as shown in FIGS. 9A-9B.

[9] = test system: db/db mice; assay: Blood sugar level in diabetic mouse model over 4 weeks; format: in vivo; conditions: 10 mg/kg i.p. daily
Method: as §1

[10] = test system: pancreatic islet β-cells of diabetic mice; assay: Immunohistochemical staining for insulin in pancreatic beta-islets; format: in vivo; conditions: vs vehicle
[11] = test system: db/db mice; assay: Echocardiography, cardiomyopathy and cardiac performance; format: in vivo
Description: A similar increase (p<0.05) in pulmonary VTI was also noted in the 20 week db/db mice when compared with WT controls. […] A similar increase in M-mode short axis measurements in 20 week db/db was also noted in left ventricular internal dimension (LVID) at both systole and diastole. […] This increase in LVID is indicative of increased heart size when compared with Wt controls.

[12] = test system: wild-type C57 hearts; assay: Langendorff myocardial ischemia-reperfusion injury, wild-type hearts; design: species or system mouse; conditions: 10 μM, 45 min ischemia, 60 min reperfusion, vs vehicle
Method: Following a 45 minutes of ischemia in the wild type mouse hearts we utilized P7C3 and allowed reperfusion for first 30 minutes of reperfusion period during a 60 minutes reperfusion phase. […] Red portion of the stain in FIGS. 12A and 12C can indicate viable tissue, where as white or pale colored areas are infarcted areas. Qualification for the infract size is depicted in the accompanying bar graphs in each panel. ***p<0.0001, **p<0.001, vehicle vs. P7C3 in each group.

[13] = test system: Wt mouse heart; assay: Ex vivo lactate perfusion of heart, ventricular arrhythmia; conditions: 2 out of 5 mice, control 0%
Description: Cardiac elevation of NADH through ex vivo lactate perfusion of Wt mouse heart increases the incidence of ventricular arrhythmia by 40% (2 out of 5 mice) (FIGS. 5A and 5B).

[14] = diabetic mice, 4 week treatment

`NC(=O)c1ccc[n+]([C@@H]2O[C@H](COP(=O)([O-])O)[C@@H](O)[C@H]2O)c1` [NMN, nicotinamide mononucleotide, reference compound] was tested. Which NAD levels [1] did it give?
The NAD levels was “significantly (P<0.01) increases”.

How did the serum insulin levels [2] turn out when `OC(CNc1ccccc1)Cn1c2ccc(Br)cc2c2cc(Br)ccc21` (stereo not shown) [P7C3] was run?
The serum insulin levels was “increased”.

What about the NAD levels [1] of the same compound?
Its NAD levels is “significantly (P<0.01) increases”.

And the “protection from myocardial ischemia-reperfusion injury (infarct size)” value [3]?
The value was “cardioprotective effect”.

And the “glucose tolerance after 2 hour glucose load” value [4]?
Its value is “increased glucose tolerance”.

What about the “insulin release after glucose load” value [4] of the same compound?
The value was “significantly (P<0.001) increased”.

And the NADH/NAD ratio [5]?
The NADH/NAD ratio was “significantly attenuated”.

And the QRS interval [6]?
The QRS interval was “significantly reduced (p<0.001) back to Wt levels”.

What about the QT interval [6] of the same compound?
Its QT interval is “significantly reduced (p<0.001) back to Wt levels”.

And the QTc interval [6]?
The QTc interval was “significantly reduced (p<0.001) back to Wt levels”.

What about the “beta cells per section” value [7] of the same compound?
The value was “significant improvement”.

What about the “number of beta cells per islet” value [7] of the same compound?
Its value is “improved”.

And the “number of pancreatic islets in a unit area of the pancreas” value [7]?
Its value is “improved”.

And the “insulin sensitivity (insulin tolerance test, blood glucose)” value [8]?
Its value is “improved insulin sensitivity”.

And the “net reduction in blood sugar levels” value [9]?
The value was 173.2 mg/dL.

What about the blood sugar level ([9]; at 4 weeks, vehicle db/db 467.5±34.2, wild type 209.8±6.1) of the same compound?
Its blood sugar level is 214.5 ± 16.9 mg/dL.

And the “insulin positive beta-cells per islet area” value [10]?
The value was “increased insulin production”.

And the cardiomyopathy ([11]; 4 week treatment)?
The cardiomyopathy was “partial rescue”.

And the “IVRT (isovolumic relaxation time)” value ([11]; P7C3 treated diabetic mice)?
Its value is “improvement in cardiac performance”.

And the “MPI (myocardial performance index)” value ([11]; P7C3 treated diabetic mice)?
The value was “improvement in cardiac performance”.

What about the LV mass ([11]; db/db mice) of the same compound?
Its LV mass is “smaller increase”.

What about the “aortic VTI” value ([11]; db/db mice, 4-week treatment) of the same compound?
Its value is “much less of an increase”.

And the “pulmonary VTI” value ([11]; db/db mice, 4-week treatment)?
The value was “much less of an increase”.

What about the “left ventricular internal dimension (LVID)” value ([11]; db/db mice, particularly at the diastole) of the same compound?
The value was “much less increase”.

What about the “% ejection fraction” value [11, 14] of the same compound?
Its value is “significantly (p<0.05) decreased”.

What about the “% fractional shortening” value [11, 14] of the same compound?
The value was “significantly (p<0.05) decreased”.

What about the “protection from myocardial ischemia-reperfusion injury (infarct size)” value [12] of the same compound?
Its value is “cardioprotective effect”.

How did the “incidence of ventricular arrhythmia” value [13] turn out when lactate was run?
The value was 40%.

From US11007178B2, “Methods and uses of Nampt activators for treatment of diabetes, cardiovascular diseases, and symptoms thereof” (University of South Florida, priority 2016, dated 2021)
